Assay results as given in PMC10004634 (PLOS ONE, 2023).

Test system: U-2932 cells
Assay: SILAC phosphoproteomic analysis
Method: For differential SILAC encoding, both cells were grown in arginine- and lysine-deficient culture medium containing light (Arg0/Lys0) or heavy (Arg10/Lys8) isotopic forms of L-arginine and L-lysine (SILAC medium). […] For mass spectrometric analysis, phosphopeptide-enriched samples were loaded onto a reversed phase analytical column, resolved by an acetonitrile gradient using a nanoflow HPLC system and directly electrosprayed via a nanoelectrospray ion source into an LTQ-Orbitrap Velos mass spectrometer (Thermo Fisher Scientific). […] A false discovery rate (FDR) of 0.01 was selected for protein and peptide identification, and a posterior error probability of ≤0.1 for each peptide-to-spectral match was required. The resulting list of phosphosites exported from the MaxQuant software was filtered for class-I sites (only serine, threonine, or tyrosine assignments with a localization probability of ≥0.75) [33] and used for all subsequent biostatistical analysis. […] Gaussian regression analysis on the histogram plot of these log2-transformed ratios was performed using Sigmaplot (version 10.0; Systat Software Inc.). The obtained values for the mean and standard deviation across the whole quantitative dataset were used to determine thresholds for significant regulation of at least ±2.5 σ. […] Furthermore, only phosphosites conforming to this criterion and showing consistent regulation in both biological replicates were considered as regulated.

SMILES: CC#CC(=O)N1CC[C@@H](n2c(=O)n(-c3ccc(Oc4ccccc4)cc3)c3c(N)ncnc32)C1 [Tirabrutinib]
- Tirabrutinib/ctrl. rep. 1 (PRKCB T641): 1.02
- Tirabrutinib/ctrl. rep. 2 (PRKCB T641): 1.00
- Tirabrutinib/ctrl. rep. 1 (PRKD2 S189): 0.90
- Tirabrutinib/ctrl. rep. 2 (PRKD2 S189): 0.70
- Tirabrutinib/ctrl. rep. 1 (PRKD2 S206): 0.86
- Tirabrutinib/ctrl. rep. 2 (PRKD2 S206): 0.83
- Tirabrutinib/ctrl. rep. 1 (PRKD2 S375): 0.91
- Tirabrutinib/ctrl. rep. 2 (PRKD2 S375): 0.81
- Tirabrutinib/ctrl. rep. 1 (PRKD2 S706): 0.77
- Tirabrutinib/ctrl. rep. 2 (PRKD2 S706): 0.50
- Tirabrutinib/ctrl. rep. 1 (PRKD2 S710): 0.90
- Tirabrutinib/ctrl. rep. 2 (PRKD2 S710): 0.77
- Tirabrutinib/ctrl. rep. 2 (PRKD3 S6): 0.88
- Tirabrutinib/ctrl. rep. 2 (PRKD3 S27): 0.99
- Tirabrutinib/ctrl. rep. 1 (PRKD3 S30): 0.97
- Tirabrutinib/ctrl. rep. 1 (PRKD3 S31): 0.99
- Tirabrutinib/ctrl. rep. 2 (PRKD3 S31): 0.97
- Tirabrutinib/ctrl. rep. 1 (PRKD3 S44): 1.09
- Tirabrutinib/ctrl. rep. 2 (PRKD3 S44): 1.04
- Tirabrutinib/ctrl. rep. 1 (PRKD3 S213): 1.29
- Tirabrutinib/ctrl. rep. 2 (PRKD3 S213): 1.25
- Tirabrutinib/ctrl. rep. 2 (PRKD3 S364): 1.20
- Tirabrutinib/ctrl. rep. 1 (PRKD3 S376): 0.80
- Tirabrutinib/ctrl. rep. 2 (PRKD3 S376): 0.94
- Tirabrutinib/ctrl. rep. 1 (PRKD3 S391): 0.99
- Tirabrutinib/ctrl. rep. 2 (PRKD3 S391): 0.97
- Tirabrutinib/ctrl. rep. 2 (PRKD3 S543): 1.05
- Tirabrutinib/ctrl. rep. 1 (PRKD3 S731): 0.72
- Tirabrutinib/ctrl. rep. 2 (PRKD3 S731): 0.48
- Tirabrutinib/ctrl. rep. 1 (PRKD3 S735): 0.85
- Tirabrutinib/ctrl. rep. 2 (PRKD3 S735): 0.77
- Tirabrutinib/ctrl. rep. 1 (RAF1 S12): 1.45
- Tirabrutinib/ctrl. rep. 2 (RAF1 S12): 0.88
- Tirabrutinib/ctrl. rep. 2 (RAF1 S316): 0.94
- Tirabrutinib/ctrl. rep. 1 (RAF1 S377): 0.98
- Tirabrutinib/ctrl. rep. 2 (RAF1 S377): 1.08
- Tirabrutinib/ctrl. rep. 1 (RAF1 S641): 1.04
- Tirabrutinib/ctrl. rep. 2 (RAF1 S641): 0.98
- Tirabrutinib/ctrl. rep. 2 (RAF1 T661): 0.73
- Tirabrutinib/ctrl. rep. 1 (RELA S238): 1.26
- Tirabrutinib/ctrl. rep. 2 (RELA S238): 0.86
- Tirabrutinib/ctrl. rep. 1 (RPS6KA1 S230): 0.99
- Tirabrutinib/ctrl. rep. 2 (RPS6KA1 S230): 0.99
- Tirabrutinib/ctrl. rep. 1 (RPS6KA1 S389): 1.55
- Tirabrutinib/ctrl. rep. 2 (RPS6KA1 S389): 1.00
- Tirabrutinib/ctrl. rep. 1 (RPS6KA1 S741): 1.16
- Tirabrutinib/ctrl. rep. 2 (RPS6KA1 S741): 0.87
- Tirabrutinib/ctrl. rep. 1 (TSC2 S1132): 1.15
- Tirabrutinib/ctrl. rep. 2 (TSC2 S1132): 0.89
- Tirabrutinib/ctrl. rep. 1 (TSC2 S1254): 0.44
- Tirabrutinib/ctrl. rep. 2 (TSC2 S1254): 0.70
- Tirabrutinib/ctrl. rep. 1 (TSC2 S1336): 1.59
- Tirabrutinib/ctrl. rep. 2 (TSC2 S1336): 1.33
- Tirabrutinib/ctrl. rep. 1 (TSC2 S1346): 1.14
- Tirabrutinib/ctrl. rep. 2 (TSC2 S1346): 1.02
- Tirabrutinib/ctrl. rep. 1 (TSC2 S1364): 0.82
- Tirabrutinib/ctrl. rep. 2 (TSC2 S1364): 0.98
- Tirabrutinib/ctrl. rep. 1 (TSC2 S1385): 1.01
- Tirabrutinib/ctrl. rep. 2 (TSC2 S1385): 1.30
- Tirabrutinib/ctrl. rep. 1 (TSC2 S1411): 0.93
- Tirabrutinib/ctrl. rep. 2 (TSC2 S1411): 0.98
- Tirabrutinib/ctrl. rep. 2 (TSC2 S1420): 0.93
- Tirabrutinib/ctrl. rep. 2 (TSC2 S1448): 1.43
- Tirabrutinib/ctrl. rep. 1 (TSC2 S1449): 1.16
- Tirabrutinib/ctrl. rep. 1 (TSC2 S1452): 1.16
- Tirabrutinib/ctrl. rep. 2 (TSC2 S1452): 1.04
- Tirabrutinib/ctrl. rep. 1 (TSC2 S1798): 0.76
- Tirabrutinib/ctrl. rep. 2 (TSC2 S1798): 0.73
- Tirabrutinib/ctrl. rep. 2 (YBX1 S2): 0.99
- Tirabrutinib/ctrl. rep. 2 (YBX1 S3): 0.99
- Tirabrutinib/ctrl. rep. 1 (YBX1 S165): 0.98
- Tirabrutinib/ctrl. rep. 2 (YBX1 S165): 0.91
- Tirabrutinib/ctrl. rep. 1 (YBX1 S167): 0.91
- Tirabrutinib/ctrl. rep. 2 (YBX1 S167): 1.13
